Measurements as given in ChEMBL document CHEMBL5500344, “Design, synthesis and biological evaluation of matrine contains benzimidazole derivatives as dual TOPOI and PARP inhibitors for cancer therapy” (Eur J Med Chem, 2024).
pIC50: −log10 of the molar value. Calls of active or inactive are those of the source. The rule behind the calls is not given here.

Key:
[1] = biological target: Poly [ADP-ribose] polymerase 1 (Homo sapiens, UniProt P09874); assay: Inhibition of PARP-1 (unknown origin) incubated for 70 mins by HT universal chemiluminescent assay
Poly [ADP-ribose] polymerase 1, sequence (P09874 whole entry): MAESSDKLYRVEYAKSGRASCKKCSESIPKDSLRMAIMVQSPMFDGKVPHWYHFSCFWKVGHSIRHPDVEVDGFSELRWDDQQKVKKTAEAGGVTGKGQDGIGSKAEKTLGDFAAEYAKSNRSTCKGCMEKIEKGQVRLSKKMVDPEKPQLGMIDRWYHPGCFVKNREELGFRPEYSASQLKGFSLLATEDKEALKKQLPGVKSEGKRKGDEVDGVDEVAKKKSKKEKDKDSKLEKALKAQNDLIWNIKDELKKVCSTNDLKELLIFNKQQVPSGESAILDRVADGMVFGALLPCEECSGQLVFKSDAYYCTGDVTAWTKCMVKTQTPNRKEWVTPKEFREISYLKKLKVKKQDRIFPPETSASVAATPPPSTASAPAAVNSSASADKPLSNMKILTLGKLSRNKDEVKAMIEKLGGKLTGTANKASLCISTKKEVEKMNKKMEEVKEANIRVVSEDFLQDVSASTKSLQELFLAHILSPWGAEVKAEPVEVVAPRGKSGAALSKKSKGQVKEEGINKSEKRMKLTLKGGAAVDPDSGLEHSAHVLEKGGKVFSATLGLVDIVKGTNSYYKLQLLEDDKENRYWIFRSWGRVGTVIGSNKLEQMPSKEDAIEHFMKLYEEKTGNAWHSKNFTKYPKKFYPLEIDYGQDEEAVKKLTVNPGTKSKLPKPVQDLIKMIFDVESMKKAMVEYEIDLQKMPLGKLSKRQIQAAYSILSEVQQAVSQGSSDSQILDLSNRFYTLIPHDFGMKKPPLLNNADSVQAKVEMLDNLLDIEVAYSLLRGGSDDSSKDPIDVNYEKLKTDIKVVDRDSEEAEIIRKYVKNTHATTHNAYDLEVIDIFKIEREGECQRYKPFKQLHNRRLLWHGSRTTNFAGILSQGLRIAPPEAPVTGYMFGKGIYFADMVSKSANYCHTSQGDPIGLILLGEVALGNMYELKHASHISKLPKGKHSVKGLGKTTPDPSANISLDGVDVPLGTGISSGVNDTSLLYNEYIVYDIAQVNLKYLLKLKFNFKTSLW

L02 = assay: Antiproliferative activity against human L02 cells assessed as inhibition of cell growth incubated for 48 hrs by MTT assay; format: functional, cell-based; conditions: L02, 48 h
[2] = biological target: T1, DNA topoisomerase 1 (Homo sapiens) (UniProt P11387); assay: Inhibition of human topoisomerase 1 assessed as relaxation of supercoiled pBR322 plasmid DNA incubated for 10 to 15 mins by EtBr staining based agarose gel electrophoresis method; conditions: time 10-15 min
T1 sequence (whole entry): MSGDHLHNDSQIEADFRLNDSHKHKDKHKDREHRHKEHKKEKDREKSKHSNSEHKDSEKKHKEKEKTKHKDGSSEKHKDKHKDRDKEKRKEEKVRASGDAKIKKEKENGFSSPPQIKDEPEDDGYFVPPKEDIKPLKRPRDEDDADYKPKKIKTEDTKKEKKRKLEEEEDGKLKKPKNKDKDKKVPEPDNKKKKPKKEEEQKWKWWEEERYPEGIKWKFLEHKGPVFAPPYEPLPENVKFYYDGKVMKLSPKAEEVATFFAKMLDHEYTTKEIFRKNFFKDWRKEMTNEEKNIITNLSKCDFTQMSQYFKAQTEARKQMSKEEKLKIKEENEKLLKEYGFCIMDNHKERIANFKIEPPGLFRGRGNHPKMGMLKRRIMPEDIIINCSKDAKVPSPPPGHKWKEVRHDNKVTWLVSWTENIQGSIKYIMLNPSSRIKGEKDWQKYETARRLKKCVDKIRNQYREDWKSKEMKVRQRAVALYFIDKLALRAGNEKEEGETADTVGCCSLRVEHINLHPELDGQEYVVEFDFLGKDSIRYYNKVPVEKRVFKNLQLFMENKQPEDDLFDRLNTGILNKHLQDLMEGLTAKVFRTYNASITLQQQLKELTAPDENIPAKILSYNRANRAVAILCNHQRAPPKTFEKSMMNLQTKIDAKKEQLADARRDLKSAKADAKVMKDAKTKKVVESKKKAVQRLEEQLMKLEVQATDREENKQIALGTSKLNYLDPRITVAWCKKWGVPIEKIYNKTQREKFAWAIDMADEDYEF

HGC-27 [3] = assay: Induction of apoptosis in human HGC-27 cells at 1.25 uM incubated for 24 hrs by annexin V-FITC/PI satining based flow cytometry relative to control; format: functional
HGC-27 [4] = assay: Induction of apoptosis in human HGC-27 cells assessed as viable cells at 5 uM incubated for 24 hrs by annexin V-FITC/PI satining based flow cytometry (reference value: 95.3 %); format: functional; conditions: read-out: Activity
HGC-27 [5] = assay: Induction of apoptosis in human HGC-27 cells assessed as necrotic cells at 2.5 uM incubated for 24 hrs by annexin V-FITC/PI satining based flow cytometry (reference value: 0.13 %); format: functional
HGC-27 [6] = assay: Induction of apoptosis in human HGC-27 cells assessed as downregulation of Bcl-2 expression incubated for 48 hrs by Western blotting analysis; format: functional, cell-based
[7] = Acute toxicity in BALB/c mouse xenografted with human HGC-27 cells assessed as change in body weight at 40 mg/kg,ip administrated every other day for 17 days; format: organism-based; conditions: in vivo, 408 h, time 17 day
HGC-27 [8] = assay: Inhibition of colony formation in human HGC-27 cells incubated for 48 hrs by crystal violet staining based microscopic analysis; format: functional, cell-based
HGC-27 [9] = assay: Induction of apoptosis in human HGC-27 cells assessed as necrotic cells at 5 uM incubated for 24 hrs by annexin V-FITC/PI satining based flow cytometry (reference value: 0.13 %); format: functional
HGC-27 [10] = assay: Induction of apoptosis in human HGC-27 cells assessed as viable cells at 1.25 uM incubated for 24 hrs by annexin V-FITC/PI satining based flow cytometry (reference value: 95.3 %); format: functional; conditions: read-out: Activity
HGC-27 [11] = assay: Induction of DNA damage in human HGC-27 cells assessed as upregulation of gamma-H2AX expression incubated for 48 hrs by Western blotting analysis; format: functional, cell-based
HGC-27 [12] = assay: Induction of apoptosis in human HGC-27 cells assessed as early apoptotic cells at 5 uM incubated for 24 hrs by annexin V-FITC/PI satining based flow cytometry (reference value: 4.2 %); format: functional
HGC-27 [13] = assay: Induction of apoptosis in human HGC-27 cells assessed as downregulation of PARP expression incubated for 48 hrs by Western blotting analysis; format: functional, cell-based
HGC-27 [14] = assay: Induction of cell cycle arrest in human HGC-27 cells assessed as accumulation of cells at G0/G1 phase at 2.5 uM incubated for 48 hrs by flow cytometry relative to control; format: functional
HGC-27 [15] = assay: Antitumor activity against human HGC-27 cells xenografted in BALB/c mouse assessed as tumor growth inhibition at 40 mg/kg,ip administrated every other day for 17 days relative to control; format: functional; conditions: HGC-27, 408 h, time 17 day, read-out: TGI
HGC-27 [16] = assay: Induction of apoptosis in human HGC-27 cells assessed as upregulation of cleaved PARP expression incubated for 48 hrs by Western blotting analysis; format: functional, cell-based
HGC-27 [17] = assay: Induction of apoptosis in human HGC-27 cells assessed as late apoptotic cells at 5 uM incubated for 24 hrs by annexin V-FITC/PI satining based flow cytometry (reference value: 0.32 %); format: functional
HeLa = assay: Antiproliferative activity against human HeLa cells assessed as inhibition of cell growth incubated for 48 hrs by MTT assay; format: functional, cell-based
HGC-27 [18] = assay: Induction of apoptosis in human HGC-27 cells assessed as early apoptotic cells at 1.25 uM incubated for 24 hrs by annexin V-FITC/PI satining based flow cytometry (reference value: 4.2 %); format: functional
HGC-27 [19] = assay: Induction of apoptosis in human HGC-27 cells assessed as viable cells at 2.5 uM incubated for 24 hrs by annexin V-FITC/PI satining based flow cytometry (reference value: 95.3 %); format: functional; conditions: read-out: Activity
A549 = assay: Antiproliferative activity against human A549 cells assessed as inhibition of cell growth incubated for 48 hrs by MTT assay; format: functional, cell-based; conditions: A549, 48 h
HepG2 = assay: Antiproliferative activity against human HepG2 cells assessed as inhibition of cell growth incubated for 48 hrs by MTT assay; format: functional, cell-based; conditions: HepG2, 48 h
HGC-27 [20] = assay: Induction of apoptosis in human HGC-27 cells assessed as necrotic cells at 1.25 uM incubated for 24 hrs by annexin V-FITC/PI satining based flow cytometry (reference value: 0.13 %); format: functional
HGC-27 [21] = assay: Inhibition of cell migration in human HGC-27 cells incubated upto 72 hrs by scratch wound healing based microscopic analysis; format: functional
HGC-27 [22] = assay: Induction of apoptosis in human HGC-27 cells assessed as upregulation of caspase-3 expression incubated for 48 hrs by Western blotting analysis; format: functional, cell-based
HGC-27 [23] = assay: Induction of cell cycle arrest in human HGC-27 cells assessed as accumulation of cells at G0/G1 phase at 5 uM incubated for 48 hrs by flow cytometry relative to control; format: functional
HGC-27 [24] = assay: Induction of apoptosis in human HGC-27 cells at 2.5 uM incubated for 24 hrs by annexin V-FITC/PI satining based flow cytometry relative to control; format: functional
HGC-27 [25] = assay: Induction of apoptosis in human HGC-27 cells at 5 uM incubated for 24 hrs by annexin V-FITC/PI satining based flow cytometry relative to control; format: functional
HGC-27 [26] = assay: Induction of cell cycle arrest in human HGC-27 cells assessed as accumulation of cells at G0/G1 phase at 1.25 uM incubated for 48 hrs by flow cytometry relative to control; format: functional
HGC-27 [27] = assay: Induction of DNA damage in human HGC-27 cells assessed as upregulation of p53 expression incubated for 48 hrs by Western blotting analysis; format: functional, cell-based
HGC-27 [28] = assay: Induction of apoptosis in human HGC-27 cells assessed as upregulation of Bax expression incubated for 48 hrs by Western blotting analysis; format: functional, cell-based
HGC-27 [29] = assay: Induction of apoptosis in human HGC-27 cells assessed as early apoptotic cells at 2.5 uM incubated for 24 hrs by annexin V-FITC/PI satining based flow cytometry (reference value: 4.2 %); format: functional
HGC-27 [30] = assay: Induction of apoptosis in human HGC-27 cells assessed as late apoptotic cells at 1.25 uM incubated for 24 hrs by annexin V-FITC/PI satining based flow cytometry (reference value: 0.32 %); format: functional
HGC-27 [31] = assay: Induction of DNA damage in human HGC-27 cells assessed as upregulation of p53 phoshorylation incubated for 48 hrs by Western blotting analysis; format: functional, cell-based
HGC-27 [32] = assay: Induction of apoptosis in human HGC-27 cells assessed as upregulation of cleaved caspase-3 expression incubated for 48 hrs by Western blotting analysis; format: functional, cell-based
HGC-27 [33] = assay: Antiproliferative activity against human HGC-27 cells assessed as inhibition of cell growth incubated for 48 hrs by MTT assay; format: functional, cell-based; conditions: HGC-27, 48 h
HGC-27 [34] = assay: Induction of apoptosis in human HGC-27 cells assessed as late apoptotic cells at 2.5 uM incubated for 24 hrs by annexin V-FITC/PI satining based flow cytometry (reference value: 0.32 %); format: functional
[35] = biological target: T1, DNA topoisomerase 1 (Homo sapiens); assay: Inhibition of human topoisomerase 1 assessed as relaxation of supercoiled pBR322 plasmid DNA at 100 uM incubated for 10 to 15 mins by EtBr staining based agarose gel electrophoresis method; conditions: time 10-15 min
[36] = Acute toxicity in BALB/c mouse xenografted with human HGC-27 cells assessed as increase in connective tissue proliferation of kidney at 40 mg/kg,ip administrated every other day for 17 days by hematoxylin and eosin staining method; format: organism-based; conditions: in vivo, 408 h, time 17 day
[37] = Acute toxicity in BALB/c mouse xenografted with human HGC-27 cells assessed as venous congestion in spleen at 40 mg/kg,ip administrated every other day for 17 days by hematoxylin and eosin staining method; format: organism-based; conditions: in vivo, 408 h, time 17 day
[38] = Acute toxicity in BALB/c mouse xenografted with human HGC-27 cells assessed as increase in mucin secretion of lung at 40 mg/kg,ip administrated every other day for 17 days by hematoxylin and eosin staining method; format: organism-based; conditions: in vivo, 408 h, time 17 day

SMILES: O=C(OCC1c2ccccc2-c2ccccc21)N1C[C@@H]2CCCN3CCC[C@@H]([C@H]23)[C@H]1CCCc1nc2cc(Br)c(Br)cc2[nH]1
- pIC50 [1]: 7.05
- pIC50 (L02): < 4.19
- inhibition [2]: Dose-Dependent Effect
- Activity (HGC-27 [3]): 15.5%
- viability at 5 µM (HGC-27 [4]): 18.1%
- Activity (HGC-27 [5]): 0.6%
- Activity (HGC-27 [6]): Dose-Dependent Effect
- Activity [7]: Toxic
- inhibition (HGC-27 [8]): Dose-Dependent Effect
- Activity (HGC-27 [9]): 1.42%
- viability at 1.25 µM (HGC-27 [10]): 80.7%
- Activity (HGC-27 [11]): Dose-Dependent Effect
- Activity (HGC-27 [12]): 72.5%
- Activity (HGC-27 [13]): Dose-Dependent Effect
- Activity (HGC-27 [14]): 70%
- inhibition in vivo at 40 mg/kg (HGC-27 [15]): 75.4%
- Activity (HGC-27 [16]): Dose-Dependent Effect
- Activity (HGC-27 [17]): 8.01%
- pIC50 (HeLa): 5.14
- Activity (HGC-27 [18]): 17.2%
- viability at 2.5 µM (HGC-27 [19]): 51.7%
- pIC50 (A549): 5.02
- pIC50 (HepG2): 5.42
- Activity (HGC-27 [20]): 0.37%
- inhibition (HGC-27 [21]): Dose-Dependent Effect
- Activity (HGC-27 [22]): Dose-Dependent Effect
- Activity (HGC-27 [23]): 74%
- Activity (HGC-27 [24]): 43.1%
- Activity (HGC-27 [25]): 76%
- Activity (HGC-27 [26]): 66%
- Activity (HGC-27 [27]): Dose-Dependent Effect
- Activity (HGC-27 [28]): Dose-Dependent Effect
- Activity (HGC-27 [29]): 40.6%
- Activity (HGC-27 [30]): 1.79%
- Activity (HGC-27 [31]): Dose-Dependent Effect
- Activity (HGC-27 [32]): Dose-Dependent Effect
- pIC50 (HGC-27 [33]; read-out: IC50): 5.60
- Activity (HGC-27 [34]): 7%

SMILES: O=C(CCC[C@@H]1[C@H]2CCCN3CCC[C@@H](CN1C(=O)OCC1c4ccccc4-c4ccccc41)[C@@H]23)NCCCc1nc2ccc(F)cc2[nH]1
- pIC50 [1]: < 4.80
- pIC50 (L02): < 4.19
- pIC50 (HeLa): 4.80
- pIC50 (A549): 4.93
- pIC50 (HepG2): 5.17
- inhibition [35]: Active
- pIC50 (HGC-27 [33]; read-out: IC50): 5.09

SMILES: CCc1c2c(nc3ccc(OC(=O)N4CCC(N5CCCCC5)CC4)cc13)-c1cc3c(c(=O)n1C2)COC(=O)[C@]3(O)CC [IRINOTECAN]
- Activity [7]: Toxic
- Activity [36]: Toxic
- Activity [37]: Toxic
- inhibition in vivo at 40 mg/kg (HGC-27 [15]): 87%
- pIC50 (HeLa): 4.88
- pIC50 (A549): 5.21
- pIC50 (HepG2): 4.97
- pIC50 (HGC-27 [33]): 5.15
- Activity [38]: Toxic

SMILES: O=S(=O)(c1cccc2ccccc12)N1C[C@@H]2CCCN3CCC[C@@H]([C@H]23)[C@H]1CCCc1nc2cc(F)ccc2n1S(=O)(=O)c1cccc2ccccc12
- pIC50 [1]: 4.86
- pIC50 (L02): < 4.19
- pIC50 (HeLa): 4.96
- pIC50 (A549): 4.77
- pIC50 (HepG2): 5.16
- pIC50 (HGC-27 [33]; read-out: IC50): 5.12
